Assay results published in article PMC5909127, “Optimization of a “bump-and-hole” approach to allele-selective BET bromodomain inhibition” (Chemical Science, 2018).

How the values were obtained:
[1] = target: T1, BRD4 BD1 WT (Homo sapiens, UniProt O60885); assay: competitive AlphaLISA; assay type: binding
[2] = target: T2, BRD4 BD1 L/V (Homo sapiens, UniProt O60885, L94V); assay: competitive AlphaLISA; assay type: binding; details: for ΔpIC50 BRD4 BD1: L/V minus WT
[3] = target: T3, BRD2 BD1 WT (Homo sapiens, UniProt P25440); assay: ITC; assay type: binding
[4] = target: BRD2 BD1 L/V (Homo sapiens, UniProt P25440, L110V); assay: ITC; assay type: binding
[5] = target: BRD2 BD2 WT (Homo sapiens, UniProt P25440); assay: ITC; assay type: binding
[6] = target: BRD2 BD2 L/V (Homo sapiens, UniProt P25440, L383V); assay: ITC; assay type: binding
[7] = target: T4, BRD3 BD1 WT (Homo sapiens, UniProt Q15059); assay: ITC; assay type: binding
[8] = target: T5, BRD3 BD1 L/V (Homo sapiens, UniProt Q15059, L70V); assay: ITC; assay type: binding
[9] = target: BRD3 BD2 WT (Homo sapiens, UniProt Q15059); assay: ITC; assay type: binding
[10] = target: T6, BRD3 BD2 L/V (Homo sapiens, UniProt Q15059, L345V); assay: ITC; assay type: binding
[11] = target: T1, BRD4 BD1 WT; assay: ITC; assay type: binding
[12] = target: T2, BRD4 BD1 L/V; assay: ITC; assay type: binding; details: for Kd: Kd BRD4 BD1 L/V
[13] = target: BRD4 BD2 WT (Homo sapiens, UniProt O60885); assay: ITC; assay type: binding
[14] = target: BRD4 BD2 L/V (Homo sapiens, UniProt O60885, L387V); assay: ITC; assay type: binding
[15] = target: D1 (h) (Homo sapiens, UniProt P21728); assay: CEREP ExpresSProfile; details: read-out: Mean % of control specific binding (±SD)
[16] = target: 5-HT6 (h) (Homo sapiens, UniProt P50406); assay: CEREP ExpresSProfile; details: read-out: Mean % of control specific binding (±SD)
[17] = target: CCR1 (h) (Homo sapiens, UniProt P32246); assay: CEREP ExpresSProfile; details: read-out: Mean % of control specific binding (±SD)
[18] = target: V1a (h) (Homo sapiens, UniProt P37288); assay: CEREP ExpresSProfile; details: read-out: Mean % of control specific binding (±SD)
[19] = target: delta (DOP) (h) (Homo sapiens, UniProt P41143); assay: CEREP ExpresSProfile; details: read-out: Mean % of control specific binding (±SD)
Excerpt: (§1) Receptor Reference Compound Mean % of control specific
Receptor & Ion-Channel Screening
CEREP ExpresSProfile panel

[20] = target: A2A (h) (Homo sapiens, UniProt P29274); assay: CEREP ExpresSProfile; details: read-out: Mean % of control specific binding (±SD)
[21] = test system: alpha 1 (non-selective); assay: CEREP ExpresSProfile; assay type: binding; details: 1 µM
[22] = target: D2S (h) (Homo sapiens, UniProt P14416); assay: CEREP ExpresSProfile; details: read-out: Mean % of control specific binding (±SD)
[23] = target: A3 (h) (Homo sapiens, UniProt P0DMS8); assay: CEREP ExpresSProfile; details: read-out: Mean % of control specific binding (±SD)
Excerpt: as §1
Receptor & Ion-Channel Screening
CEREP ExpresSProfile panel

[24] = target: norepinephrine transporter (h) (Homo sapiens, UniProt P23975); assay: CEREP ExpresSProfile; details: read-out: Mean % of control specific binding (±SD)
Excerpt: as §1
Receptor & Ion-Channel Screening
CEREP ExpresSProfile panel

[25] = target: dopamine transporter (h) (Homo sapiens, UniProt Q01959); assay: CEREP ExpresSProfile; details: read-out: Mean % of control specific binding (±SD)
Excerpt: as §1
Receptor & Ion-Channel Screening
CEREP ExpresSProfile panel

[26] = test system: L/V somatic BET bromodomains; assay: ITC
[27] = WT Cell Cytotoxicity (CellTiter-Glo); details: human, MV4-11 cells (BET-dependent AML cell line)
[28] = test system: MV4-11; assay: WT Cell Cytotoxicity (CellTiter-Glo); details: MV4-11 and HL-60
[29] = target: WT BET bromodomains (BD1 and BD2 of BRD2, BRD3 and BRD4); assay: competitive AlphaLISA (Bio-JQ1 displacement); assay type: binding, human; details: mean and SD of all somatic bromodomains; active enantiomer concentration
[30] = target: T3, BRD2 BD1 WT; assay: competitive AlphaLISA; assay type: binding
[31] = target: T4, BRD3 BD1 WT; assay: competitive AlphaLISA; assay type: binding
[32] = target: T5, BRD3 BD1 L/V; assay: competitive AlphaLISA; assay type: binding
[33] = target: T6, BRD3 BD2 L/V; assay: competitive AlphaLISA; assay type: binding
[34] = target: BRDT BD2 WT (Homo sapiens, UniProt Q58F21); assay: competitive AlphaLISA; assay type: binding
[35] = target: BRDT BD2 L/V (Homo sapiens, UniProt Q58F21, L306V); assay: competitive AlphaLISA; assay type: binding
[36] = pIC50 BRD4 BD1 WT, separated enantiomers test, total compound concentration
[37] = pIC50 BRD4 BD1 L/V, separated enantiomers test, total compound concentration
[38] = ITC, total compound concentration
[39] = ITC of separated enantiomers and racemates, total compound concentration

BRD2 BD1 L/V, sequence (P25440 71-176 L110V limits assumed): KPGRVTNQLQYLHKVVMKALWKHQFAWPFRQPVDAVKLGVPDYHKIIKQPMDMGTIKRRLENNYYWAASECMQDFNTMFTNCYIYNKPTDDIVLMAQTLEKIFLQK
T6 sequence (Q15059 306-416 L345V limits assumed): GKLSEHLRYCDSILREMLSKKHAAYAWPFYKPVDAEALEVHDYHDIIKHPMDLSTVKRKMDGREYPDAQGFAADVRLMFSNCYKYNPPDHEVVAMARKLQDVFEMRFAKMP
T3 sequence (P25440 71-176): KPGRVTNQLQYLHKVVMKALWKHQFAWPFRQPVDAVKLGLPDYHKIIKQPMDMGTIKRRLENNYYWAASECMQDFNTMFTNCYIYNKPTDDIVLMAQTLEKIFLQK
T5 sequence (Q15059 24-144 L70V limits assumed): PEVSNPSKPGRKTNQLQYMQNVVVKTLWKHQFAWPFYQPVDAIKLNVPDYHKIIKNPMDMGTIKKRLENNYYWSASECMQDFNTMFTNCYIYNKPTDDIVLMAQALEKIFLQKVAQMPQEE
BRD2 BD2 L/V, sequence (P25440 344-455 L383V): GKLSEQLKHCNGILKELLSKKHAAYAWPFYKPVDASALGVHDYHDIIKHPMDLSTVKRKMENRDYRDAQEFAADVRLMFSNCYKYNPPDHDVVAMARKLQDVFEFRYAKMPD
T4 sequence (Q15059 24-144): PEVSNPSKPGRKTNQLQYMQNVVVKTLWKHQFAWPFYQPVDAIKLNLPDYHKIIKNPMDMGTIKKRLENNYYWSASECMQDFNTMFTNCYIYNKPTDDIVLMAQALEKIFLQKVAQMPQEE
BRD2 BD2 WT, sequence (P25440 344-455): as the sequence (P25440 344-455 L383V) above, with V40L counted along it
BRD3 BD2 WT, sequence (Q15059 306-416): as the sequence (Q15059 306-416 L345V limits assumed) above, with V40L counted along it
norepinephrine transporter (h), sequence (P23975 whole entry): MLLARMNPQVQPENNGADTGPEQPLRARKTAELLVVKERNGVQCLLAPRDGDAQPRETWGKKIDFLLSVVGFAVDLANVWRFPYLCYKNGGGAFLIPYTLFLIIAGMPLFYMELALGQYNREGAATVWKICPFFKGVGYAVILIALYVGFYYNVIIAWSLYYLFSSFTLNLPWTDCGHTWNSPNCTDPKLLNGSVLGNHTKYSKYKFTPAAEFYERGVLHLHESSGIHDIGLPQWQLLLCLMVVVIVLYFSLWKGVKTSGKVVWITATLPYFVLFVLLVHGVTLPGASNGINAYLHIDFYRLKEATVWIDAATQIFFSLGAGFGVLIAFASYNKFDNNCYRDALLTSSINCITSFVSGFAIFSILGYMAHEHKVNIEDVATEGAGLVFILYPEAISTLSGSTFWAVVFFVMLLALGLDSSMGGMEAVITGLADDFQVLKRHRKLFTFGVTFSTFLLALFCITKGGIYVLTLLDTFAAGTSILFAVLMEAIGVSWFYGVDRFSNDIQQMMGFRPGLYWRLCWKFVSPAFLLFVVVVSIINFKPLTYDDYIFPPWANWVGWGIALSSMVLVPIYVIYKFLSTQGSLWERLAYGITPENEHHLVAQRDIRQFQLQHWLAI
D2S (h), sequence (P14416 1-414 isoform P14416-2): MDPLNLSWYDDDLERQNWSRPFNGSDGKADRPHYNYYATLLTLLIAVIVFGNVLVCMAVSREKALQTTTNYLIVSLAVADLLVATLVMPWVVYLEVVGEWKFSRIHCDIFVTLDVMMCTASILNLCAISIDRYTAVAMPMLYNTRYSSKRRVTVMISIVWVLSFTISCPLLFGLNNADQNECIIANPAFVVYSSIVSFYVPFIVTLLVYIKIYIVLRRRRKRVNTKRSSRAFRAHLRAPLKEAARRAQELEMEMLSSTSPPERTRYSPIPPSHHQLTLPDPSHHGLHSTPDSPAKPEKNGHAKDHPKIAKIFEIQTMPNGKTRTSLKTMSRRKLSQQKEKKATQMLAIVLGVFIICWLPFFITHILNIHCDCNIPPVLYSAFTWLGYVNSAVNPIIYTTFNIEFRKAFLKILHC
D1 (h), sequence (P21728 whole entry): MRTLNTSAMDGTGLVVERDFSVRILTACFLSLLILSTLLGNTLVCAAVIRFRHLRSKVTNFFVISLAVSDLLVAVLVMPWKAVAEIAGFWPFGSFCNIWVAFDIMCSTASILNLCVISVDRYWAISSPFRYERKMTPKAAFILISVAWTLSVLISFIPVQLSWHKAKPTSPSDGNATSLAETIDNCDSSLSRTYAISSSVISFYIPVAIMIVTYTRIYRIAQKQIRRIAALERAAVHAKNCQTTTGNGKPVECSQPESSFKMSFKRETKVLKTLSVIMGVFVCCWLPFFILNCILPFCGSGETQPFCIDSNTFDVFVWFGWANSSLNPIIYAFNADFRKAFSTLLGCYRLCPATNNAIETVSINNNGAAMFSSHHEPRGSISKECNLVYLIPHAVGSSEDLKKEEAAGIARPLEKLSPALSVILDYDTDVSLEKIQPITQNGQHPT
V1a (h), sequence (P37288 whole entry): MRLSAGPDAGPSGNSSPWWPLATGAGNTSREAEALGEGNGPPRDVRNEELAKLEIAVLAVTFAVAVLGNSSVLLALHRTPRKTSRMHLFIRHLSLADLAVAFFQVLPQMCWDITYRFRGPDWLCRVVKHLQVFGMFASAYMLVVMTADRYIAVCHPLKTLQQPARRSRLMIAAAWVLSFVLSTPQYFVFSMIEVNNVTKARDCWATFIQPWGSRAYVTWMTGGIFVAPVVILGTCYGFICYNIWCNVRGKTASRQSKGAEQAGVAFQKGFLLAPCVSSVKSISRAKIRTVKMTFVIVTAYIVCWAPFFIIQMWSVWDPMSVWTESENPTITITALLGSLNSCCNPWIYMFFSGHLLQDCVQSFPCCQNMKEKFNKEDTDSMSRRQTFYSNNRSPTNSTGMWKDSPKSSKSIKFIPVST
delta (DOP) (h), sequence (P41143 whole entry): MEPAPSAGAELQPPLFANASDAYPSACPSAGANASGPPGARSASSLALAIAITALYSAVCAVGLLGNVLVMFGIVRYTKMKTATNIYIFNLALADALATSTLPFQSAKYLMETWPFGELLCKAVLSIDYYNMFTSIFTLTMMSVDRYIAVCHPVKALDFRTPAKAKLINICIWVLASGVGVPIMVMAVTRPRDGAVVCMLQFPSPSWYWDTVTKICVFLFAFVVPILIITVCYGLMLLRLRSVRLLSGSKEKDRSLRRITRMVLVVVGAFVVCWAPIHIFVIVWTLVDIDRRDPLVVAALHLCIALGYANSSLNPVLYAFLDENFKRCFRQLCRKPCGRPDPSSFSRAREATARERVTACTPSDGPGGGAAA
A2A (h), sequence (P29274 whole entry): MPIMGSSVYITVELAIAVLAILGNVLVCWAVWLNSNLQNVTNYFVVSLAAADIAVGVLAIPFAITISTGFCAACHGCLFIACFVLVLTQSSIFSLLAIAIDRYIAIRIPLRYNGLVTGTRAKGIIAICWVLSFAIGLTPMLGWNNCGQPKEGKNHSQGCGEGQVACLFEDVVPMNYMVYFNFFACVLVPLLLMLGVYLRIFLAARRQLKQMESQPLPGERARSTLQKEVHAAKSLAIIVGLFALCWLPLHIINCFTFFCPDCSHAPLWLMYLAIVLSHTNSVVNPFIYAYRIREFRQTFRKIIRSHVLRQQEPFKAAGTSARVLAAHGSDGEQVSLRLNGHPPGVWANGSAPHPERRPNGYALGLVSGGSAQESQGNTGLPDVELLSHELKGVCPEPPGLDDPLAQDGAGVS
CCR1 (h), sequence (P32246 whole entry): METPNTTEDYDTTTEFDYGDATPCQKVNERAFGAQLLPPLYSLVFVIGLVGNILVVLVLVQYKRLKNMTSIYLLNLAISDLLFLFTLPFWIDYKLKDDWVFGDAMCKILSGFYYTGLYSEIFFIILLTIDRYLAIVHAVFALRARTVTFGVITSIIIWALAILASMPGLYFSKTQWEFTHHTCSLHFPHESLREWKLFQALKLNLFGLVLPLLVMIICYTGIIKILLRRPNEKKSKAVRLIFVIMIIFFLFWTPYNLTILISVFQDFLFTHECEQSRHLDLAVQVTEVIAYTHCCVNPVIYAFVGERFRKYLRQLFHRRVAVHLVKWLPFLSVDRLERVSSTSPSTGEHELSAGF
5-HT6 (h), sequence (P50406 whole entry): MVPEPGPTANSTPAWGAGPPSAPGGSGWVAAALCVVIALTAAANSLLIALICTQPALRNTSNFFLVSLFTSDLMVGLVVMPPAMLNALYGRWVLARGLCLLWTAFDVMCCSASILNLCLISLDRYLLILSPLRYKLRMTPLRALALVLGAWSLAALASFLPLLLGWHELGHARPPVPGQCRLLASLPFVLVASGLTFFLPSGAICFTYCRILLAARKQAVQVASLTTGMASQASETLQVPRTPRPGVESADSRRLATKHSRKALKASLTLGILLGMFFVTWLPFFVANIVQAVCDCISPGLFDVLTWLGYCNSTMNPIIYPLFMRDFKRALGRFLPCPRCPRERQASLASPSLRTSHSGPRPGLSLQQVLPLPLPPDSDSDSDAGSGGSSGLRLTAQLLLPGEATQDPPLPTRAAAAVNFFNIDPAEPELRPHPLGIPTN
A3 (h), sequence (P0DMS8 whole entry): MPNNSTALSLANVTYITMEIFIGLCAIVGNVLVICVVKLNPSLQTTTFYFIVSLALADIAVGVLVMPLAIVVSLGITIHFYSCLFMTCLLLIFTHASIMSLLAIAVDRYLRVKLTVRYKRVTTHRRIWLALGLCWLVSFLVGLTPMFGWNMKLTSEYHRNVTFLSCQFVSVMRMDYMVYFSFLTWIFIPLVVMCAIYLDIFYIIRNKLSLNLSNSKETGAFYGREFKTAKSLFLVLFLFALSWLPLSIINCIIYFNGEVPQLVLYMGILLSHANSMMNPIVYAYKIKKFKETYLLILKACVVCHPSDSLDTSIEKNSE

SMILES: COC(=O)[C@H](C)[C@@H]1N=C(c2ccc(Cl)cc2)c2ccc(OC)cc2-n2c(C)nnc21 [(2R,3S)-7]
- IC50 [1, 36]: 7940 nM
- ΔpIC50 BRD4 BD1 ([2]; total compound concentration): 1.7
- IC50 [2, 37]: 158 nM
- Kd [3]: 43000 nM
- Kd [4]: 210 nM
- Kd [5]: > 60000 nM
- Kd [6]: 200 nM
- Kd [7]: 7500 nM
- Kd [8]: 90 nM
- Kd [9]: 24000 nM
- Kd [10]: 310 nM
- Kd [11]: 58000 ± 4000 nM
- ΔH BRD4 BD1 WT [11, 38]: -13.3 ± 0.5 kcal/mol
- ΔH BRD4 BD1 L/V [12, 38]: -7.9 ± 0.1 kcal/mol
- Kd [12, 39]: 170 ± 20 nM
- Kd [13]: 29000 nM
- Kd [14]: 300 nM
- remaining activity at 1 µM [15]: 116%
- remaining activity at 1 µM [16]: 112%
- remaining activity at 1 µM [17]: 102%
- remaining activity at 1 µM [18]: 102%
- remaining activity at 1 µM [19]: 100%
- remaining activity at 1 µM [20]: 99%
- Mean % of control specific binding (±SD) [21]: 99 (12) %
- remaining activity at 1 µM [22]: 95%
- remaining activity at 1 µM [23]: 91%
- remaining activity at 1 µM [24]: 88%
- remaining activity at 1 µM [25]: 84%
- potency ([26]; L/V BET bromodomains): ~200 nM
- CC50 at 48 h [27]: 2510 nM
- cytotoxicity [28]: no cytotoxicity below 1 μM

SMILES: CC[C@@H](C(=O)OC)[C@@H]1N=C(c2ccc(Cl)cc2)c2ccc(OC)cc2-n2c(C)nnc21 (racemic) [Compound 8]
- AlphaLISA pIC50 ± SD WT [29]: 5.5 ± 0.2
- IC50 [30]: 10000 nM
- IC50 [31]: 2510 nM
- IC50 [32]: 126 nM
- IC50 [33]: 79.4 nM
- IC50 ([1]; AlphaLISA pIC50 Value BRD4 BD1 WT): 1580 nM
- IC50 [1, 36]: 50100 nM
- IC50 ([2]; AlphaLISA pIC50 Value BRD4 BD1 L/V): 126 nM
- ΔpIC50 BRD4 BD1 ([2]; total compound concentration): 1.4
- IC50 [2, 37]: 2000 nM
- IC50 [34]: 3980 nM
- IC50 [35]: 398 nM
- Kd [3]: > 60000 nM
- Kd [4]: 340 nM
- selectivity plot WT 2.1 vs L/V 2.1 ([4]; Kd BRD2 BD1 WT / Kd BRD2 BD1 L/V): > 180
- selectivity plot WT 2.2 vs L/V 2.1 ([4]; Kd BRD2 BD2 WT / Kd BRD2 BD1 L/V): > 180
- selectivity plot WT 3.1 vs L/V 2.1 ([4]; Kd BRD3 BD1 WT / Kd BRD2 BD1 L/V): 90
- selectivity plot WT 3.2 vs L/V 2.1 ([4]; Kd BRD3 BD2 WT / Kd BRD2 BD1 L/V): > 180
- selectivity plot WT 4.1 vs L/V 2.1 ([4]; Kd BRD4 BD1 WT / Kd BRD2 BD1 L/V): > 180
- selectivity plot WT 4.2 vs L/V 2.1 ([4]; Kd BRD4 BD2 WT / Kd BRD2 BD1 L/V): > 180
- Kd [5]: > 60000 nM
- Kd [6]: 300 nM
- selectivity plot WT 2.1 vs L/V 2.2 ([6]; Kd BRD2 BD1 WT / Kd BRD2 BD2 L/V): > 200
- selectivity plot WT 2.2 vs L/V 2.2 ([6]; Kd BRD2 BD2 WT / Kd BRD2 BD2 L/V): > 200
- selectivity plot WT 3.1 vs L/V 2.2 ([6]; Kd BRD3 BD1 WT / Kd BRD2 BD2 L/V): 100
- selectivity plot WT 3.2 vs L/V 2.2 ([6]; Kd BRD3 BD2 WT / Kd BRD2 BD2 L/V): > 200
- selectivity plot WT 4.1 vs L/V 2.2 ([6]; Kd BRD4 BD1 WT / Kd BRD2 BD2 L/V): > 200
- selectivity plot WT 4.2 vs L/V 2.2 ([6]; Kd BRD4 BD2 WT / Kd BRD2 BD2 L/V): > 200
- Kd [7]: 29000 nM
- Kd [8]: 270 nM
- selectivity plot WT 2.1 vs L/V 3.1 ([8]; Kd BRD2 BD1 WT / Kd BRD3 BD1 L/V): > 230
- selectivity plot WT 2.2 vs L/V 3.1 ([8]; Kd BRD2 BD2 WT / Kd BRD3 BD1 L/V): > 230
- selectivity plot WT 3.1 vs L/V 3.1 ([8]; Kd BRD3 BD1 WT / Kd BRD3 BD1 L/V): 110
- selectivity plot WT 3.2 vs L/V 3.1 ([8]; Kd BRD3 BD2 WT / Kd BRD3 BD1 L/V): > 230
- selectivity plot WT 4.1 vs L/V 3.1 ([8]; Kd BRD4 BD1 WT / Kd BRD3 BD1 L/V): > 230
- selectivity plot WT 4.2 vs L/V 3.1 ([8]; Kd BRD4 BD2 WT / Kd BRD3 BD1 L/V): > 230
- Kd [9]: > 60000 nM
- Kd [10]: 410 nM
- selectivity plot WT 2.1 vs L/V 3.2 ([10]; Kd BRD2 BD1 WT / Kd BRD3 BD2 L/V): > 150
- selectivity plot WT 2.2 vs L/V 3.2 ([10]; Kd BRD2 BD2 WT / Kd BRD3 BD2 L/V): > 150
- selectivity plot WT 3.1 vs L/V 3.2 ([10]; Kd BRD3 BD1 WT / Kd BRD3 BD2 L/V): 70
- selectivity plot WT 3.2 vs L/V 3.2 ([10]; Kd BRD3 BD2 WT / Kd BRD3 BD2 L/V): > 150
- selectivity plot WT 4.1 vs L/V 3.2 ([10]; Kd BRD4 BD1 WT / Kd BRD3 BD2 L/V): > 150
- selectivity plot WT 4.2 vs L/V 3.2 ([10]; Kd BRD4 BD2 WT / Kd BRD3 BD2 L/V): > 150
- Kd [11]: > 60000 nM
- N BRD4 BD1 L/V ([12]; ITC stoichiometry, total compound concentration): 1.42 ±0.02
- ΔH BRD4 BD1 L/V [12, 38]: -3.5 ± 0.1 kcal/mol
- selectivity plot WT 2.1 vs L/V 4.1 ([12]; Kd BRD2 BD1 WT / Kd BRD4 BD1 L/V): > 110
- selectivity plot WT 2.2 vs L/V 4.1 ([12]; Kd BRD2 BD2 WT / Kd BRD4 BD1 L/V): > 100
- selectivity plot WT 3.1 vs L/V 4.1 ([12]; Kd BRD3 BD1 WT / Kd BRD4 BD1 L/V): 60
- selectivity plot WT 3.2 vs L/V 4.1 ([12]; Kd BRD3 BD2 WT / Kd BRD4 BD1 L/V): > 110
- Kd [12, 39]: 840 ± 170 nM
- Kd ([12]; ITC, 30°C): 530 nM
- selectivity plot WT 4.1 vs L/V 4.1 ([12]; Kd BRD4 BD1 WT / Kd BRD4 BD1 L/V): > 100
- selectivity plot WT 4.2 vs L/V 4.1 ([12]; Kd BRD4 BD2 WT / Kd BRD4 BD1 L/V): > 100
- Kd [13]: > 60000 nM
- Kd [14]: 740 nM
- selectivity plot WT 2.1 vs L/V 4.2 ([14]; Kd BRD2 BD1 WT / Kd BRD4 BD2 L/V): > 80
- selectivity plot WT 2.2 vs L/V 4.2 ([14]; Kd BRD2 BD2 WT / Kd BRD4 BD2 L/V): > 80
- selectivity plot WT 3.1 vs L/V 4.2 ([14]; Kd BRD3 BD1 WT / Kd BRD4 BD2 L/V): 40
- selectivity plot WT 3.2 vs L/V 4.2 ([14]; Kd BRD3 BD2 WT / Kd BRD4 BD2 L/V): > 80
- selectivity plot WT 4.1 vs L/V 4.2 ([14]; Kd BRD4 BD1 WT / Kd BRD4 BD2 L/V): > 80
- selectivity plot WT 4.2 vs L/V 4.2 ([14]; Kd BRD4 BD2 WT / Kd BRD4 BD2 L/V): > 80
- ITC pKd ± SD Δ ([26]; L/V minus WT): >2.2 ± 0.2
- selectivity for the L/V mutant over wild-type ([26]; across the BET subfamily, ITC): > 100 fold
- ITC pKd ± SD L/V ([26]; mean and SD of all somatic bromodomains): 6.4 ± 0.2
